In patent US20220009894A1, “1,2,3,4-TETRAHYDROQUINOXALINE DERIVATIVE, PREPARATION METHOD THEREFOR AND APPLICATION THEREOF” (Abbisko Therapeutics Co., Ltd., priority 2019, published 2022):
pEC50: −log10 of the molar value.

How the values were obtained:
RORγt-LBD = target: T1, RORγt-LBD (Homo sapiens, UniProt P51449); assay: Time-resolved fluorescence resonance energy-transfer assay (TR-FRET), co-activator peptide recruitment; assay type: biochemical; parameters: TR-FRET Biochemical Amax: unit not given here; conditions: for pEC50: His-RORγt-LBD 30 nM, SRC peptide 500 nM, agonistic activity, averages of one or more measurements, read-out: TR-FRET Biochemical EC50/; for TR-FRET Biochemical Amax: upper activation limit, His-RORγt-LBD, SRC peptide
T1 sequence (P51449 269-508 limits assumed): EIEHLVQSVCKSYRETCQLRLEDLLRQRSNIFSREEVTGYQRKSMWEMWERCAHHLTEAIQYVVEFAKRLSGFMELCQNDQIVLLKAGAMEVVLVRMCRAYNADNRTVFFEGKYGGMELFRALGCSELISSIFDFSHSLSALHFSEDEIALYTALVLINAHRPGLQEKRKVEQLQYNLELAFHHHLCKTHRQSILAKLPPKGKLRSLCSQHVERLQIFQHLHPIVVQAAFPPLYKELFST
Summary of the method: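 Eu-anti-His-labelled His-RORγt-LBD (30 nM final) recruits biotin-SRC co-activator peptide (500 nM final), detected via APC-streptavidin (5 nM) and Eu-anti-His (0.25 nM). Buffer was Tris/KCl/EDTA at pH 7.0 with 0.01% Triton X-100 and 1 mM DTT. Compounds were tested at 7 points in 5-fold dilutions. Plates were incubated overnight at 4 °C then 1 h at RT, and agonism was read as the 665/615 nm ratio.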

RORγt = target: T2, RORγt (Homo sapiens, UniProt P51449); assay: RORγt cellular reporter gene detection assay; assay type: cell-based; conditions: 24 hrs; for pEC50: HEK 293 cells co-transfected with pFN26A-RORγt-LBD and pG14.35, in presence of antagonist Ursolic acid, top concentration 50 μM; for Cellular Reporter Assay Amax: upper activation limit, HEK 293 cells, in presence of antagonist Ursolic acid;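 as to Cellular Reporter Assay Amax: Ursolic Acid added as 5 µL of 20 µM medium per well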
T2 construct: The plasmid of pFN26A-RORγt-LBD and pG14.35 (Promega, Cat. No. E1370) were co-transfected into HEK 293 cells; expressed in transfected cells; host or cells: HEK 293 cells (Cat. No. GNHu18)
T2 sequence (P51449 269-508 limits assumed): T1 sequence (P51449 269-508 limits assumed)
Summary of the method: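 HEK293 cells co-transfected with RORγt-LBD and luciferase reporter plasmids, treated with Ursolic acid antagonist plus compound in 4-fold dilutions from 50 μM for 24 h at 37° C. Firefly and Renilla luminescence read; EC50 and Amax from four-parameter fit.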

Compound | pEC50 (RORγt-LBD) | TR-FRET Biochemical Amax (RORγt-LBD) | pEC50 (RORγt) | Cellular Reporter Assay Amax (RORγt)
CCOC(=O)C(=O)N1CCN2c3ccc(/C=C(\C)c4c(F)cccc4Cl)cc3N(S(=O)(=O)c3cccc(C(F)(F)F)c3)C[C@@H]2C1 [Example 57, ethyl (S,E)-2-(8-(2-(2-chloro-6-fluorophenyl)prop-1-en-1-yl)-6-((3-(trifluoromethyl)phenyl)sulfonyl)-1,2,4,4a,5,6-hexahydro-3H-pyrazino[1,2-a]quinoxalin-3-yl)-2-oxoacetate] | 8.18 | 0.89 | 6.52 | 3.2
NC(=O)N1CCN2c3ccc(-c4cc(F)cc(OC(F)F)c4)cc3N(S(=O)(=O)c3cccc(C(F)(F)F)c3)C[C@@H]2C1 [Example 61, (S)-8-(3-(difluoromethoxy)-5-fluorophenyl)-6-((3-(trifluoro-methyl)phenyl)sulfonyl)-1,2,4,4a,5,6-hexahydro-3H-pyra-zino[1,2-a]quinoxaline-3-car-boxamide] | 7.07 | 0.69 | 6.33 | 3.0
C/C(=C\c1ccc2c(c1)N(S(=O)(=O)c1cccc(C(F)(F)F)c1)C[C@@H]1CN(C(N)=S)CCN21)c1c(F)cccc1Cl [Example 63, (S,E)-8-(2-(2-chloro-6-fluorophenyl)prop-1-en-1-yl)-6-((3-(trifluoromethyl)phenyl)sulfonyl)-1,2,4,4a,5,6-hexahydro-3H-pyrazino[1,2-a]quinoxaline-3-carbothioamide] | 7.63 | 0.89 | 6.51 | 5.0
NC(=S)N1CCN2c3ccc(-c4cc(F)cc(OC(F)F)c4)cc3N(S(=O)(=O)c3cccc(C(F)(F)F)c3)C[C@@H]2C1 [Example 64, (S)-8-(3-(difluoromethoxy)-5-fluorophenyl)-6-((3-(trifluoro-methyl)phenyl)sulfonyl)-1,2,4,4a,5,6-hexahydro-3H-pyrazino [1,2-a]quinoxaline-3-carbo-thioamide] | 7.32 | 0.80 | 6.25 | 2.7
NS(=O)(=O)N1CCN2c3ccc(-c4cc(F)cc(OC(F)F)c4)cc3N(S(=O)(=O)c3cccc(C(F)(F)F)c3)C[C@@H]2C1 [Example 67, (R)-8-(3-(difluoromethoxy)-5-fluoro-phenyl)-6-((3-(trifluorometh-yl)phenyl)sulfonyl)-1,2,4,4a,5,6-hexahydro-3H-pyrazino[1,2-a]quinoxaline-3-sulfonamide] | 7.71 | 0.87 | 6.80 | 3.3
C/C(=C\c1ccc2c(c1)N(S(=O)(=O)c1cccc(C(F)(F)F)c1)C[C@@H]1CN(C(CO)CO)CCN21)c1c(F)cccc1Cl [Example 69, (S,E)-2-(8-(2-(2-chloro-6-fluorophenyl)prop-1-en-1-yl)-6-((3-(trifluoromethyl)phenyl)sulfonyl)-1,2,4,4a,5,6-hexahydro-3H-pyrazino[1,2-a]quinoxalin-3-yl)propane-1,3-diol] | 7.35 | 1.05 | 6.22 | 5.8
O=S(=O)(c1cccc(C(F)(F)F)c1)N1C[C@@H]2CN(C(CO)CO)CCN2c2ccc(-c3cc(F)cc(OC(F)F)c3)cc21 [Example 70, (S)-2-(8-(3-(difluoromethoxy)-5-fluorophenyl)-6-((3-(trifluorometh-yl)phenyl)sulfonyl)-1,2,4,4a,5,6-hexahydro-3H-pyrazino[1,2-a]quinoxalin-3-yl)propane-1,3-diol] | 7.19 | 0.99 | 6.28 | 4.2
C/C(=C\c1ccc2c(c1)N(S(=O)(=O)c1cccc(C(F)(F)F)c1)C[C@@H]1CN(C(C)(CO)CO)CCN21)c1c(F)cccc1Cl [Example 71, (S,E)-2-(8-(2-(2-chloro-6-fluorophenyl)prop-1-en-1-yl)-6-((3-(trifluoromethyl)phenyl)sulfonyl)-1,2,4,4a,5,6-hexahydro-3H-pyrazino[1,2-a]quinoxalin-3-yl)-2-methylpropane-1,3-diol] | 7.39 | 0.97 | 6.30 | 3.5
CC(CO)(CO)N1CCN2c3ccc(-c4cc(F)cc(OC(F)F)c4)cc3N(S(=O)(=O)c3cccc(C(F)(F)F)c3)C[C@@H]2C1 [Example 72, (S)-2-(8-(3-(difluoromethoxy)-5-fluorophenyl)-6-((3-(trifluoro-methyl)phenyl)sulfonyl)-1,2,4,4a,5,6-hexahydro-3H-pyra-zino[1,2-a]quinoxalin-3-yl)-2-methylpropane-1,3-diol] | 7.37 | 0.65 | 6.62 | 2.6

Continued, values first:

pEC50 (RORγt-LBD) | TR-FRET Biochemical Amax (RORγt-LBD) | pEC50 (RORγt) | Cellular Reporter Assay Amax (RORγt) | Compound
7.71 | 0.79 | 5.86 | 4.0 | CCOC(=O)C(=O)N1CCN2c3ccc(/C=C/c4c(Cl)cccc4C(F)(F)F)cc3N(S(=O)(=O)c3cccc(C(F)(F)F)c3)C[C@@H]2C1 [Example 58, ethyl (S,E)-2-(8-(2-chloro-6-(trifluoromethyl)styryl)-6-((3-(trifluoromethyl)phenyl)sulfonyl)-1,2,4,4a,5,6-hexahydro-3H-pyrazino[1,2-a]quinoxalin-3-yl)-2-oxoacetate]
7.00 | 1.10 | 6.22 | 3.5 | NC(=O)CN1CCN2c3ccc(/C=C/c4c(Cl)cccc4C(F)(F)F)cc3N(S(=O)(=O)c3cccc(C(F)(F)F)c3)C[C@@H]2C1 [Example 59, (S,E)-2-(8-(2-chloro-6-(trifluoromethyl)styryl)-6-((3-(trifluoromethyl)phenyl)sulfonyl)-1,2,4,4a,5,6-hexahydro-3H-pyrazino[1,2-a]quinoxalin-3-yl)acetamide]
7.21 | 0.98 | 6.60 | 2.8 | NC(=O)N1CCN2c3ccc(/C=C/c4c(Cl)cccc4C(F)(F)F)cc3N(S(=O)(=O)c3cccc(C(F)(F)F)c3)C[C@@H]2C1 [Example 60, (S,E)-8-(2-chloro-6-(trifluoromethyl)styryl)-6-((3-(trifluoromethyl)phenyl)sulfonyl)-1,2,4,4a,5,6-hexahydro-3H-pyrazino[1,2-a]quinoxalin-3-carboxamide]
7.60 | 0.69 | 6.53 | 3.8 | C/C(=C\c1ccc2c(c1)N(S(=O)(=O)c1cccc(C(F)(F)F)c1)C[C@@H]1CN(C(N)=O)CCN21)c1c(F)cccc1Cl [Example 62, (S,E)-8-(2-(2-chloro-6-fluoro-phenyl)prop-1-en-1-yl)-6-((3-(trifluoromethyl)phenyl)sulfo-nyl)-1,2,4,4a,5,6-hexahydro-3H-pyrazino[1,2-a]quinoxa-line-3-carboxamide]
8.08 | 0.89 | 6.41 | 2.8 | NC(=S)N1CCN2c3ccc(/C=C/c4c(Cl)cccc4C(F)(F)F)cc3N(S(=O)(=O)c3cccc(C(F)(F)F)c3)C[C@@H]2C1 [Example 65, (S,E)-8-(2-chloro-6-(trifluoro-methyl)styryl)-6-((3-(trifluoro-methyl)phenyl)sulfonyl)-1,2,4,4a,5,6-hexahydro-3H-pyrazino [1,2-a]quinoxaline-3-carbothio-amide]
7.47 | 0.99 | 6.28 | 5.6 | C/C(=C\c1ccc2c(c1)N(S(=O)(=O)c1cccc(C(F)(F)F)c1)C[C@@H]1CN(S(N)(=O)=O)CCN21)c1c(F)cccc1Cl [Example 66, (R,E)-8-(2-(2-chloro-6-fluorophenyl)prop-1-en-1-yl)-6-((3-(trifluoromethyl)phenyl)sulfonyl)-1,2,4,4a,5,6-hexahydro-3H-pyrazino[1,2-a]quinoxaline-3-sulfonamide]
7.52 | 1.03 | 6.82 | 2.5 | NS(=O)(=O)N1CCN2c3ccc(/C=C/c4c(Cl)cccc4C(F)(F)F)cc3N(S(=O)(=O)c3cccc(C(F)(F)F)c3)C[C@@H]2C1 [Example 68, (R,E)-8-(2-chloro-6-(trifluorometh-yl)styryl)-6-((3-(trifluorometh-yl)phenyl)sulfonyl)-1,2,4,4a,5,6-hexahydro-3H-pyrazino[1,2-a]quinoxaline-3-sulfonamide]
